melting point: 126 °C
SMILES: COc1ccc(C2=NN(Cc3ccc([N+](=O)[O-])cc3)C(=O)CC2)cc1OC [Example 1, 2-(4-Nitrobenzyl)-6-(3,4-dimethoxyphenyl) -2,3,4,5-tetrahydropyridazin-3-one]
